Several values for one entry are separate records, joined by “and”; a condition that tells them apart may be missing. Equal entries are not always repeated.
Legend:
MDA-MB-231 cells [1] = assay: High-content epigenetic inhibitor screen, quantification of living cells; format: cell-based, human; details: 3 μM, 72 h
Text: (§1) HeLa, MCF-7 and MDA-MB-231 cell lines were purchased from the American Type Culture Collection. MCF-10A, T-47D, PANC-1, A549, HCT-15, Caco-2, SMMC-7721, SH-SY5Y, HUVEC and PC-3 cell lines were obtained from the Chinese Academy of Medical Sciences. MEF was isolated from pregnant mice at 14‒16 days of pregnancy. Primary breast cancer cells were isolated from breast cancer patients. All media including Dulbecco Modified Eagle Medium (DMEM), RPMI 1640 Medium and DMEM/Nutrient Mixture F-12 were supplemented with 10% fetal bovine serum (FBS), 100 units/mL penicillin, and […] streptomycin (Gibco, Waltham, MA, USA). Cells were cultured in a humidified incubator equilibrated with 5% CO2 at 37 °C. Cells were treated for 24-72 h in adherent conditions with compounds from an epigenetic small molecule inhibitor library (L1200, Topscience, Shanghai, China).
(§2) Statistical analyses of all data were performed using GraphPad Prism (version 8.0, Graph Pad Software Inc., San Diego, CA, USA). All the data were analyzed by Student's t-test or one-way ANOVA. The Z-Score was chosen to evaluate the results and experimental deviation. Quantitative data are presented as the mean ± SD. The asterisk (*) denotes statistically significant difference (P < 0.05). IC50 was calculated using a four-parameter fit with variable slope in GraphPad Prism.
To identify potential anti-tumor inhibitors, we screened an epigenetic small molecule inhibitor library for anti-tumor activity in breast cancer cells. […] The selection strategy mainly comprised three stages, in which different concentrations (high to low) of inhibitors screened with a high-content analysis instrument were identified using cancer cell lines in a 96-well plate format (Figure 1A). For the first step, we treated cells with a high concentration of compounds to exclude compounds ineffective in killing cancer cells. MDA-MB-231 cells, a human breast cancer cell line, were treated with 167 epigenetic compounds (30 μM each) for 48 h, and then analyzed by high-content analysis, where changes in cell morphology relative to the control (dimethyl sulfoxide, DMSO) would indicate modulation of cancer cells by compound treatment. […] At the second step, we treated the cells with the 60 compounds at a median concentration (3 μM) for 72 h to screen for inhibitors that can kill cancer cells with high efficiency.

MDA-MB-231 cells [2] = assay: Intracellular calcium measurement (Fluo-4-AM); format: cell-based, human; details: thrombin stimulation, different concentrations of the pan-HDAC inhibitors
Procedure: After treatment, the cells were digested and seeded in 96-well black plates (Corning Costar, Cambridge, MA, USA) and cultured for 20 h. For measurement of [Ca^2+]i, the cells were labeled with Fluo-4-AM in serum-free medium for half an hour at room temperature. After washing with Dulbecco's Phosphate Buffered Saline (D-PBS), cells were overlaid in Hank's balanced salt solution (5.4 mM KCl, 1 mM MgCl2, 20 mM hydroxyethyl piperazineethanesulfonic acid (HEPES), 120 mM NaCl, 10 mM glucose, 0.2 mM Ethylenebis(oxyethylenenitrilo)tetraacetic acid (EGTA)). Continuous fluorescence intensity was detected after thrombin was added as a calcium agonist by an automated sampler. Response over baseline was assessed as a relative measure of [Ca^2+]i.
As previously stated, studies have shown that the Ca^2+ signals can modulate cancer progression by regulating migration, proliferation, cell stress, and apoptosis.

HUVEC = assay: CCK8 assay IC50; format: cell-based, human; details: normal cells, 72 h
Procedure: (§3) Cell viability was then detected using a CCK8 assay (MedChemExpress, USA) according to the manufacturer's instructions.
as §2

MDA-MB-231 = assay: CCK8 assay IC50; format: cell-based, human; details: MDA-MB-231, breast cancer, 72 h, CCK8
Procedure: as §3, §2

MEF = assay: CCK8 assay IC50; format: cell-based, mouse; details: normal cells, 72 h
Text: as §1, §3
as §2, with “The asterisk (*) denotes statistically significant difference (P < 0.05).” left out

[3] = system: Primary breast tumor cells; assay: CCK8 assay IC50; format: cell-based, human; details: breast cancer, 72 h
Text: as §1, §3
as §2, with “The asterisk (*) denotes statistically significant difference (P < 0.05).” left out

A549 = assay: CCK8 assay IC50; format: cell-based; details: A549, lung cancer, 72 h
Procedure: as §3, §2

Caco-2 = assay: CCK8 assay IC50; format: cell-based; details: Caco-2, colon cancer, 72 h
Procedure: as §3, §2

HCT-15 = assay: CCK8 assay IC50; format: cell-based; details: HCT-15, colon cancer, 72 h
Procedure: as §3, §2

HeLa = assay: CCK8 assay IC50; format: cell-based; details: cervical cancer, 72 h
Procedure: as §3, §2

MCF-7 = assay: CCK8 assay IC50; format: cell-based; details: MCF-7, breast cancer, 72 h, CCK8
Procedure: as §3, §2

PANC-1 = assay: CCK8 assay IC50; format: cell-based; details: PANC-1, pancreatic cancer, 72 h
Procedure: as §3, §2

PC-3 = assay: CCK8 assay IC50; format: cell-based; details: PC-3, prostatic cancer, 72 h
Procedure: as §3, §2

SH-SY5Y = assay: CCK8 assay IC50; format: cell-based; details: neuroblastoma, 72 h
Procedure: as §3, §2

SMMC-7721 = assay: CCK8 assay IC50; format: cell-based; details: SMMC-7721, liver cancer, 72 h
Procedure: as §3, §2

T-47D = assay: CCK8 assay IC50; format: cell-based; details: breast cancer, 72 h
Procedure: as §3, §2

Q: For `O=C(CCCCCCC(=O)Nc1ccccc1)NO` [vorinostat], which “effect on cell survival” value (MDA-MB-231 cells [1]) is on record?
A: Its value is “discernible effects on cell survival”.

Q: What about the “frequency and amplitude of [Ca^2+]i oscillations” value (MDA-MB-231 cells [2]) of the same compound?
A: Its value is “did not alter the frequency and amplitude”.

Q: Which “effect on cell survival” value (MDA-MB-231 cells [1]) does the source give for `CCCCc1nc2cc(/C=C/C(=O)NO)ccc2n1CCN(CC)CC` [pracinostat] here?
A: Its value is “discernible effects on cell survival”.

Q: With `C#Cc1cccc(Nc2ncnc3cc(OC)c(OCCCCCCC(=O)NO)cc23)c1` [CUDC-101] as the compound, how does the “effect on cell survival” value (MDA-MB-231 cells [1]) read?
A: The value was “discernible effects on cell survival”.

Q: `O=C(/C=C/c1cccc(S(=O)(=O)Nc2ccccc2)c1)NO` [belinostat] was tested. Which “effect on cell survival” value (MDA-MB-231 cells [1]) did it give?
A: Its value is “discernible effects on cell survival”.

Q: How did the “frequency and amplitude of [Ca^2+]i oscillations” value (MDA-MB-231 cells [2]) turn out when `Cc1[nH]c2ccccc2c1CCNCc1ccc(/C=C/C(=O)NO)cc1` [panobinostat] was run?
A: Its value is “did not alter the frequency and amplitude”.

Q: `Cc1cc(Nc2nc(N[C@@H](C)c3ccc(F)cc3)c(C#N)cc2F)[nH]n1` [AZ960] was tested. Which “effect on cell survival” value (MDA-MB-231 cells [1]) did it give?
A: The value was “discernible effects on cell survival”.

Q: What does the source list for `CC(/C=C/C(=O)NO)=C\[C@@H](C)C(=O)c1ccc(N(C)C)cc1` [TSA, trichostatin A]?
A: effect on cell survival (MDA-MB-231 cells [1]): discernible effects on cell survival; IC50 (HUVEC): < 1000 nM and 830 nM; IC50 (MDA-MB-231): 1000 nM; IC50 (MEF): < 1000 nM and 891 nM; IC50 [3]: 2320 nM; IC50 (A549): 1310 nM; IC50 (Caco-2): 3000 nM; IC50 (HCT-15): 2300 nM; IC50 (HeLa): 572 nM; IC50 (MCF-7): 922 nM; IC50 (PANC-1): 1430 nM; IC50 (PC-3): 1310 nM; IC50 (SH-SY5Y): 720 nM; IC50 (SMMC-7721): 3270 nM; IC50 (T-47D): 905 nM; frequency and amplitude of [Ca^2+]i oscillations (MDA-MB-231 cells [2]): did not alter the frequency and amplitude

— article PMC7797697 (Theranostics, 2021)
